Experimental data: US10947252B2, “Inhibitors of KEAP1-Nrf2 protein-protein interaction” (Janssen Pharmaceutica NV, priority 2018, dated 2021)

Experiments:
[1] = molecular target: Kelch domain of human KEAP1 (321-624 aa) (Homo sapiens (Human), UniProt Q14145); assay: KEAP1 KELCH ThermoFluor binding assay; details: KEAP Kelch […], 1,8-ANS, pH 7.0, average of results obtained, read-out: Tf Kd;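 further: Ligand-induced melting temperature shift of E. coli-expressed KEAP1 Kelch protein, Kd estimated from concentration-response curves of ΔTm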
Kelch domain of human KEAP1 (321-624 aa), sequence (Q14145 321-624): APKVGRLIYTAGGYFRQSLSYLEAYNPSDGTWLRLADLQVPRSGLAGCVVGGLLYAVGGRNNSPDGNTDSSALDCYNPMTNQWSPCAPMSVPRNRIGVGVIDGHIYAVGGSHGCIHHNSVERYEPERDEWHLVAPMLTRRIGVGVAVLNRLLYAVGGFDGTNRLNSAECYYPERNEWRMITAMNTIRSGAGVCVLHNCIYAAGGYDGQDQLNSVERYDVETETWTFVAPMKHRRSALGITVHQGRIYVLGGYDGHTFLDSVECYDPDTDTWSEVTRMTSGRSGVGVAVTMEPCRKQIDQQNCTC

[2] = test system: Glo-Response ARE-luc2P HEK293 cell line; assay: ARE luciferase reporter cell-based assay; details: Homo sapiens, HEK293, 24 h, average of results obtained;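 further: luciferase signal tracks Nrf2 activation of the ARE once compounds disrupt KEAP1-Nrf2 binding, read with One-Glo reagent, DMSO serving as low control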

Row | Structure (SMILES) | Kd [1] [nM] | EC50 [2] [nM]
1 | Cc1cc2c(nc1OCCN1CCCC1)OC1(CC1)CN(Cc1cc([C@H](c3ccc4c(nnn4C4CC4)c3C)C(C)(C)C(=O)O)cnc1C)S2(=O)=O (single isomer, unassigned) [Example 628, (*S)-3-(1-Cyclopropyl-4-methyl-1H-benzo[d][1,2,3]triazol-5-yl)-2,2-dimethyl-3-(6-methyl-5-((8′-methyl-1′,1′-dioxido-7′-(2-(pyrrolidine-1-yl)ethoxy)spiro[cyclopropane-1,4′-pyrido[2,3-b][1,4,5]]oxathiazepin]-2′(3′H)-yl)methyl)pyridine-3-yl)propanoic Acid] | 15400 | > 20000
2 | Cc1cnc2c(c1)S(=O)(=O)N(Cc1nc([C@H](c3ccn4c(C(F)(F)F)nnc4c3C)C(C)(C)C(=O)O)ccc1C)CC1(CNC1)O2 (single isomer, unassigned) [Example 629, (*R)-2,2-Dimethyl-3-(8-methyl-3-(trifluoromethyl)-[1,2,4]triazolo[4,3-a]pyridin-7-yl)-3-(5-methyl-6-((8′-methyl-1′,1′-dioxidospiro[azetidine-3,4′-pyrido[2,3-b][1,4,5]oxathiazepin]-2′(3′H)-yl)methyl)pyridin-2-yl)propanoic Acid] | 131000 | > 20000
3 | Cc1cnc2c(c1)S(=O)(=O)N(Cc1nc([C@@H](c3ccn4c(C(F)(F)F)nnc4c3C)C(C)(C)C(=O)O)ccc1C)CC1(CNC1)O2 (single isomer, unassigned) [Example 630, (*S)-2,2-Dimethyl-3-(8-methyl-3-(trifluoromethyl)-[1,2,4]triazolo[4,3-a]pyridin-7-yl)-3-(5-methyl-6-((8′-methyl-1′,1′-dioxidospiro[azetidine-3,4′-pyrido[2,3-b][1,4,5]oxathiazepin]-2′(3′H)-yl)methyl)pyridin-2-yl)propanoic Acid] | 3.81 | 81.8
4 | Cc1cnc2c(c1)S(=O)(=O)N(Cc1nc([C@H](c3ccn4c(C(F)F)nnc4c3C)C(C)(C)C(=O)O)ccc1C)CC1(CNC1)O2 (single isomer, unassigned) [Example 631, (*R)-3-(3-(Difluoromethyl)-8-methyl-[1,2,4]triazolo[4,3-a]pyridin-7-yl)-2,2-dimethyl-3-(5-methyl-6-((8′-methyl-1′,1′-dioxidospiro[azetidine-3,4′-pyrido[2,3-b][1,4,5]oxathiazepin]-2′(3′H)-yl)methyl)pyridin-2-yl)propanoic Acid] | 1.08 | 76.8
5 | Cc1cnc2c(c1)S(=O)(=O)N(Cc1nc([C@@H](c3ccn4c(C(F)F)nnc4c3C)C(C)(C)C(=O)O)ccc1C)CC1(CNC1)O2 (single isomer, unassigned) [Example 632, (*S)-3-(3-(Difluoromethyl)-8-methyl-[1,2,4]triazolo[4,3-a]pyridin-7-yl)-2,2-dimethyl-3-(5-methyl-6-((8′-methyl-1′,1′-dioxidospiro[azetidine-3,4′-pyrido[2,3-b][1,4,5]oxathiazepin]-2′(3′H)-yl)methyl)pyridin-2-yl)propanoic Acid] | 21200 | 18100
6 | Cc1ccc([C@H](c2ccn3c(C(F)(F)F)nnc3c2C)C(C)(C)C(=O)O)nc1CN1CC2(CC2)Oc2nc(OCCN3CCCC3)c(C)cc2S1(=O)=O (single isomer, unassigned) [Example 633, (*R)-2,2-Dimethyl-3-(8-methyl-3-(trifluoromethyl)-[1,2,4]triazolo[4,3-a]pyridin-7-yl)-3-(5-methyl-6-((8′-methyl-1′,1′-dioxido-7′-(2-(pyrrolidin-1-yl)ethoxy)spiro[cyclopropane-1,4′-pyrido[2,3-b][1,4,5]oxathiazepin]-2′(3′H)-yl)methyl)pyridin-2-yl)propanoic Acid] | 2260 | 1750
7 | Cc1ccc([C@@H](c2ccn3c(C(F)(F)F)nnc3c2C)C(C)(C)C(=O)O)nc1CN1CC2(CC2)Oc2nc(OCCN3CCCC3)c(C)cc2S1(=O)=O (single isomer, unassigned) [Example 634, (*S)-2,2-Dimethyl-3-(8-methyl-3-(trifluoromethyl)-[1,2,4]triazolo[4,3-a]pyridin-7-yl)-3-(5-methyl-6-((8′-methyl-1′,1′-dioxido-7′-(2-(pyrrolidin-1-yl)ethoxy)spiro[cyclopropane-1,4′-pyrido[2,3-b][1,4,5]oxathiazepin]-2′(3′H)-yl)methyl)pyridin-2-yl)propanoic Acid] | < 1 | 9.53

Now from value to compound, other results behind:

Row | Kd [1] [nM] | Structure (SMILES) | EC50 [2] [nM]
8 | 1190 | Cc1cnc([C@H](c2ccn3c(C(F)F)nnc3c2C)C(C)(C)C(=O)O)cc1CN1CC2(CC2)Oc2nc(OCCN3CCCC3)c(C)cc2S1(=O)=O (single isomer, unassigned) [Example 635, (*R)-3-(3-(Difluoromethyl)-8-methyl-[1,2,4]triazolo[4,3-a]pyridin-7-yl)-2,2-dimethyl-3-(5-methyl-4-((8′-methyl-1′,1′-dioxido-7′-(2-(pyrrolidin-1-yl)ethoxy)spiro[cyclopropane-1,4′-pyrido[2,3-b][1,4,5]oxathiazepin]-2′(3′H)-yl)methyl)pyridin-2-yl)propanoic Acid] | 3590
9 | < 1 | Cc1cnc([C@@H](c2ccn3c(C(F)F)nnc3c2C)C(C)(C)C(=O)O)cc1CN1CC2(CC2)Oc2nc(OCCN3CCCC3)c(C)cc2S1(=O)=O (single isomer, unassigned) [Example 636, (*S)-3-(3-(Difluoromethyl)-8-methyl-[1,2,4]triazolo[4,3-a]pyridin-7-yl)-2,2-dimethyl-3-(5-methyl-4-((8′-methyl-1′,1′-dioxido-7′-(2-(pyrrolidin-1-yl)ethoxy)spiro[cyclopropane-1,4′-pyrido[2,3-b][1,4,5]oxathiazepin]-2′(3′H)-yl)methyl)pyridin-2-yl)propanoic Acid] | 40.2
10 | < 1 | Cc1cnc([C@@H](c2ccn3c(C(F)F)nnc3c2C)C(C)(C)C(=O)O)cc1CN1CC2(CC2)Oc2nc(OCCN3CCCCC3)c(C)cc2S1(=O)=O (single isomer, unassigned) [Example 638, (*S)-3-(3-(Difluoromethyl)-8-methyl-[1,2,4]triazolo[4,3-a]pyridin-7-yl)-2,2-dimethyl-3-(5-methyl-4-((8′-methyl-1′,1′-dioxido-7′-(2-(piperidin-1-yl)ethoxy)spiro[cyclopropane-1,4′-pyrido[2,3-b][1,4,5]oxathiazepin]-2′(3′H)-yl)methyl)pyridin-2-yl)propanoic Acid] | 20.1
11 | 1820 | Cc1cnc([C@H](c2ccn3c(C(F)F)nnc3c2C)C(C)(C)C(=O)O)cc1CN1CC2(CCOCC2)Oc2nc(OCCN3CCCC3)c(C)cc2S1(=O)=O (single isomer, unassigned) [Example 639, (*R)-3-(3-(Difluoromethyl)-8-methyl-[1,2,4]triazolo[4,3-a]pyridin-7-yl)-2,2-dimethyl-3-(5-methyl-4-((8′-methyl-1′,1′-dioxido-7′-(2-(pyrrolidin-1-yl)ethoxy)-2,3,5,6-tetrahydrospiro[pyran-4,4′-pyrido[2,3-b][1,4,5]oxathiazepin]-2′(3′H)-yl)methyl)pyridin-2-yl)propanoic Acid] | 5170
12 | < 1 | Cc1cnc([C@@H](c2ccn3c(C(F)F)nnc3c2C)C(C)(C)C(=O)O)cc1CN1CC2(CCOCC2)Oc2nc(OCCN3CCCC3)c(C)cc2S1(=O)=O (single isomer, unassigned) [Example 640, (*S)-3-(3-(Difluoromethyl)-8-methyl-[1,2,4]triazolo[4,3-a]pyridin-7-yl)-2,2-dimethyl-3-(5-methyl-4-((8′-methyl-1′,1′-dioxido-7′-(2-(pyrrolidin-1-yl)ethoxy)-2,3,5,6-tetrahydrospiro[pyran-4,4′-pyrido[2,3-b][1,4,5]oxathiazepin]-2′(3′H)-yl)methyl)pyridin-2-yl)propanoic Acid] | 73.9
13 | < 1 | Cc1cnc([C@@H](c2ccn3c(C(F)F)nnc3c2C)C(C)(C)C(=O)O)cc1CN1CC2(CCOCC2)Oc2nc(OCCN3CCCCC3)c(C)cc2S1(=O)=O (single isomer, unassigned) [Example 642, (*S)-3-(3-(Difluoromethyl)-8-methyl-[1,2,4]triazolo[4,3-a]pyridin-7-yl)-2,2-dimethyl-3-(5-methyl-4-((8′-methyl-1′,1′-dioxido-7′-(2-(piperidin-1-yl)ethoxy)-2,3,5,6-tetrahydrospiro[pyran-4,4′-pyrido[2,3-b][1,4,5]oxathiazepin]-2′(3′H)-yl)methyl)pyridin-2-yl)propanoic Acid] | 36.6
14 | 2420 | Cc1ccc([C@H](c2ccn3c(C(F)F)nnc3c2C)C(C)(C)C(=O)O)nc1CN1CC2(CCOCC2)Oc2nc(OCCN3CCCC3)c(C)cc2S1(=O)=O (single isomer, unassigned) [Example 643, (*R)-3-(3-(Difluoromethyl)-8-methyl-[1,2,4]triazolo[4,3-a]pyridin-7-yl)-2,2-dimethyl-3-(5-methyl-6-((8′-methyl-1′,1′-dioxido-7′-(2-(pyrrolidin-1-yl)ethoxy)-2,3,5,6-tetrahydrospiro[pyran-4,4′-pyrido[2,3-b][1,4,5]oxathiazepin]-2′(3′H)-yl)methyl)pyridin-2-yl)propanoic Acid] | 9780
15 | < 1 | Cc1ccc([C@@H](c2ccn3c(C(F)F)nnc3c2C)C(C)(C)C(=O)O)nc1CN1CC2(CCOCC2)Oc2nc(OCCN3CCCC3)c(C)cc2S1(=O)=O (single isomer, unassigned) [Example 644, (*S)-3-(3-(Difluoromethyl)-8-methyl-[1,2,4]triazolo[4,3-a]pyridin-7-yl)-2,2-dimethyl-3-(5-methyl-6-((8′-methyl-1′,1′-dioxido-7′-(2-(pyrrolidin-1-yl)ethoxy)-2,3,5,6-tetrahydrospiro[pyran-4,4′-pyrido[2,3-b][1,4,5]oxathiazepin]-2′(3′H)-yl)methyl)pyridin-2-yl)propanoic Acid] | 51.7
